Assay results taken from patent US12115151B2, “Method of treatment of p53 WT tumors” (Dana-Farber Cancer Institute, Inc., priority 2018, dated 2024).
Where “and” joins values, the source holds several entries; their conditions need not be identical. Equal entries are not always repeated. Entries after “also recorded” stand apart in the source; their conditions may differ.

How the values were obtained:
MS-1 cells = test: XTT viability assay, MS-1 cells; type: cell-based; conditions: MS-1 (p53 mutant); 96 hours
Procedure: (§1) Cell viability assays were performed using Cell Proliferation Kit II (XTT) (Roche) according to the manufacturer's instructions and BH3 profiling was described in Pallis et al. (36). Synergy testing was performed using Compusyn and Synergyfinder (28, 29).

MKL-1 MCC cells = test: XTT cell viability assay and synergy testing, MKL-1 cells; type: cell-based; conditions: 96 hours; for sensitivity of MKL-1 cells to MDM2 inhibitor (XTT viability): MKL-1 (p53 wild type); for relative viability (XTT), untreated = 1: combinations with a fixed amount of Lenalidomide (5 uM), replicate columns; for Response: relative viability vs untreated; for Response-rep1 / Response-rep2: Lenalidomide 0 nM
Procedure: as §1
The XTT assay was performed to determine the relative viability (% response) normalized to untreated cells.

CK1α = CK1α (Homo sapiens, UniProt P48729); test: Western blot of CK1α protein levels in MKL-1 cells; type: cell-based; conditions: IMiD 10 μM
Chain of CK1α (P48729 whole entry): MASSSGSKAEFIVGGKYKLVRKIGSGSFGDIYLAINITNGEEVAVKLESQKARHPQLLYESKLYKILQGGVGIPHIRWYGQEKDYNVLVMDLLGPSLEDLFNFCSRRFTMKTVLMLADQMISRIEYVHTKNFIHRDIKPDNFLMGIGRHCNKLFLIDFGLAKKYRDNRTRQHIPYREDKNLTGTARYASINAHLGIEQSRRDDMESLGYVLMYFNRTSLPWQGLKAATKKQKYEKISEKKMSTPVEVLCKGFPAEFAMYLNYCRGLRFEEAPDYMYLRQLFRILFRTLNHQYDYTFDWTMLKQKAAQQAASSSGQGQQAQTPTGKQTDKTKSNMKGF
Procedure: Confluent cultures of cells were washed with ice-cold phosphate-buffered saline (PBS) and resuspended in EBC lysis buffer (50 mM Tris, pH 8.0, 150 mM NaCl, 0.5% NP-40, 1:10,000-mercaptoethanol, 0.5 mM EDTA) for 10 min on ice and then centrifuged. Clarified lysates were incubated overnight with antibodies and magnetic protein A/G beads (PureProteome magnetic beads, EMD Millipore). […] Quantitative western blotting was performed using the Odyssey near-infrared system (Li-Cor Biotechnology).

MKL-1 MCC xenografts = test: Xenograft efficacy study; conditions: individual animals, oral daily, HDM201 40 mg/kg and/or lenalidomide 50 mg/kg; for Tumor Volume Change, Abs Ch = T − T0: tumor volumes in mm3
From the text: The study was terminated when the tumor volume reached the maximum permissible size of 2000 mm3.

COc1cc(C(=O)O)ccc1NC(=O)[C@@H]1N[C@@H](CC(C)(C)C)[C@](C#N)(c2ccc(Cl)cc2F)[C@H]1c1cccc(Cl)c1F [RG7388]
sensitivity of MS-1 cells to MDM2 inhibitor (XTT viability) (MS-1 cells): not MS-1 cells were sensitive | sensitivity of MKL-1 cells to MDM2 inhibitor (XTT viability) (MKL-1 MCC cells): sensitive | relative viability (XTT), untreated = 1 (MKL-1 MCC cells; Nutlin-3 or RG7388 level 25 (unit not given)): 0.7819 and 0.7111 and 0.8222 | relative viability (XTT), untreated = 1 (MKL-1 MCC cells; Nutlin-3 or RG7388 level 50 (unit not given)): 0.6836 and 0.5814 and 0.6885 | relative viability (XTT), untreated = 1 (MKL-1 MCC cells; Nutlin-3 or RG7388 level 75 (unit not given)): 0.553 and 0.4338 and 0.5431 | relative viability (XTT), untreated = 1 (MKL-1 MCC cells; Nutlin-3 or RG7388 level 90 (unit not given)): 0.4663 and 0.3695 and 0.5108

CNc1ncc(-n2nc(N)c3cc(F)c(-c4ccc(O)c5ccccc45)cc32)c(Cl)c1C [SC-24-UR99, 4-(3-amino-1-(4-chloro-5-methyl-6-(methylamino)pyridin-3-yl)-5-fluoro-1H-indazol-6-yl)naphthalen-1-ol]
Response (MKL-1 MCC cells; SC-24-UR99 50 nM alone): 103.6933% and 100.5561% | Response (MKL-1 MCC cells; SC-24-UR99 100 nM alone): 99.5168% and 105.263% | Response (MKL-1 MCC cells; SC-24-UR99 150 nM alone): 99.3633% and 93.4308% | Response (MKL-1 MCC cells; SC-24-UR99 180 nM alone): 92.5016% and 89.8385%

O=C1CCC(N2C(=O)c3ccccc3C2=O)C(=O)N1 (centres unmarked) [thalidomide]
CK1α protein levels (CK1α): did not reduce CK1α protein levels; also recorded: not thalidomide

COc1ncc(-c2nc3c(n2C(C)C)[C@H](c2ccc(Cl)cc2)N(c2cc(Cl)cn(C)c2=O)C3=O)c(OC)n1 [HDM201, (S)-5-(5-Chloro-1-methyl-2-oxo-1,2-dihydro-pyridin-3-yl)-6-(4-chloro-phenyl)-2-(2,4-dimethoxy-pyrimidin-5-yl)-1-isopropyl-5,6-dihydro-1H-pyrrolo[3,4-d]imidazol-4-one]
Tumor Volume Change, % Ch = (T − T0)/T0 (MKL-1 MCC xenografts; day 0): 0.00% | Tumor Volume Change, Abs Ch = T − T0 (MKL-1 MCC xenografts; day 0): 0.00 | Tumor Volume Change, % Ch = (T − T0)/T0 (MKL-1 MCC xenografts; day 4): 168.68% and 25.53% and 16.64% and 93.53% and 6.55% and 29.08% and 14.67% and 11.44% | Tumor Volume Change, Abs Ch = T − T0 (MKL-1 MCC xenografts; day 4): 302.89 and 66.12 and 32.34 and 133.99 and 10.51 and 44.16 and 21.14 and 14.26 | Tumor Volume Change, % Ch = (T − T0)/T0 (MKL-1 MCC xenografts; day 7): 392.40% and 107.65% and 56.29% and 123.49% and 37.00% and 27.47% and 30.43% and 28.15% | Tumor Volume Change, Abs Ch = T − T0 (MKL-1 MCC xenografts; day 7): 704.61 and 278.82 and 109.40 and 176.91 and 59.41 and 41.71 and 43.86 and 35.09 | Tumor Volume Change, % Ch = (T − T0)/T0 (MKL-1 MCC xenografts; day 11): 465.37% and 122.53% and 125.88% and 248.58% and 101.24% and 14.09% and 37.76% and 61.17% | Tumor Volume Change, Abs Ch = T − T0 (MKL-1 MCC xenografts; day 11): 835.64 and 317.36 and 244.65 and 356.12 and 162.53 and 21.39 and 54.43 and 76.25 | Tumor Volume Change, % Ch = (T − T0)/T0 (MKL-1 MCC xenografts; day 14): 597.67% and 128.4% and 191.55% and 295.64% and 94.41% and 41.69% and 77.45% and 56.59% | Tumor Volume Change, Abs Ch = T − T0 (MKL-1 MCC xenografts; day 14): 1073.19 and 332.66 and 372.29 and 423.53 and 151.58 and 63.30 and 111.64 and 70.55 | Tumor Volume Change, % Ch = (T − T0)/T0 (MKL-1 MCC xenografts; day 18): 741.47% and 4165.70% and 234.58% and 350.27% and 114.06% and 20.72% and 81.45% and 83.83% | Tumor Volume Change, Abs Ch = T − T0 (MKL-1 MCC xenografts; day 18): 1331.39 and 429.17 and 455.90 and 501.79 and 183.12 and 31.46 and 117.41 and 104.49 | Response-rep1 (MKL-1 MCC cells; HDM201 50 nM): 90.76% | Response-rep2 (MKL-1 MCC cells; HDM201 50 nM): 92.94% | Response-rep1 (MKL-1 MCC cells; HDM201 100 nM): 75.8% | Response-rep2 (MKL-1 MCC cells; HDM201 100 nM): 77.72% | Response-rep1 (MKL-1 MCC cells; HDM201 150 nM): 53.3961% | Response-rep2 (MKL-1 MCC cells; HDM201 150 nM): 61.84% | Response-rep1 (MKL-1 MCC cells; HDM201 180 nM): 33.32% | Response-rep2 (MKL-1 MCC cells; HDM201 180 nM): 40.87% | Response (MKL-1 MCC cells; HDM201 50 nM alone): 93.9107% | Response (MKL-1 MCC cells; HDM201 100 nM alone): 90.5417% | Response (MKL-1 MCC cells; HDM201 150 nM alone): 94.8184% | Response (MKL-1 MCC cells; HDM201 180 nM alone): 87.8557%

Nc1cccc2c1C(=O)N(C1CCC(=O)NC1=O)C2=O (centres unmarked) [pomalidomide]
CK1α protein levels (CK1α): did not reduce CK1α protein levels; also recorded: to a lesser degree

CC(C)[C@@H](CS(=O)(=O)C(C)C)N1C(=O)[C@@](C)(CC(=O)O)C[C@H](c2cccc(Cl)c2)[C@H]1c1ccc(Cl)cc1 [AMG232]
sensitivity of MS-1 cells to MDM2 inhibitor (XTT viability) (MS-1 cells): not MS-1 cells were sensitive | sensitivity of MKL-1 cells to MDM2 inhibitor (XTT viability) (MKL-1 MCC cells): sensitive
